Experimental data as given in PMC12454639, “Direct disassembly of α-syn preformed fibrils into α-syn monomers by an all-D-peptide” (NPJ Parkinson's Disease, 2025).
Entries after “also recorded” stand apart in the source; their conditions may differ. Read-outs that look alike come from different tables or passages of the source. Square brackets hold non-standard residues; d marks the D form. Peptide text beside a SMILES is read from it.

Columns and labels:
[1] = tested on: PC12 cells; assay type: cell-based; conditions: for PC12 cell viability with PFF: 24 h
Method: PC12 cells (Leibniz Institute DSMZ, GE) were cultivated on collagen A-coated (Biochrom GmbH, GE) tissue culture flasks in RPMI 1640 medium supplemented with 5% fetal calf serum and 10% horse serum in a 95% humidified atmosphere with 5% CO2 at 37 °C. 10,000 cells per well in a volume of 100 µl were seeded on collagen A-coated 96-well plates (Thermo Fisher Scientific, USA) and were incubated for 24 h at 37 °C and 300 rpm in a thermo cycler. […] In addition, 15 µM of the peptides alone, cell media, buffer without peptides and 0.1% Triton X-100 (cytotoxic compound) served as controls. After further incubation in a 95% humidified atmosphere with 5% CO2 at 37 °C for 24 h, cell viability was measured using the Cell Proliferation Kit I (MTT) (Roche Applied Science, CH) according to the manufacturer’s protocol. The MTT formazan product was quantified by measuring the absorbance at 570 nm corrected by subtraction of the absorbance at 660 nm in a FLUOStar Optima plate reader (BMG Labtech, GE). All results were normalized to untreated cells grown in medium only. Test on significance was performed using one-way ANOVA with Bonferroni post hoc analysis (OriginPro 2020, OriginLab, USA; n = 4).
Test on significance was performed using one-way ANOVA with Bonferroni post hoc analysis: * […], *** p ≤ 0.01. Mean data are shown with ±SD (n = 4). While the cell viability was reduced by 50 % in the presence of 30 nM soluble small α-syn PFF alone, no toxic effect of the compounds on PC12 was observed. […] Thus, similar cell viability saving effects were found for SVD-1a using a 30-fold lower concentration.

[2] = tested on: α-syn monomer; test: De novo ThT aggregation assay (10 µM α-syn); assay type: biochemical; conditions: 37 °C, n = 5
Method: The Thioflavin T (ThT) assay is commonly used for the visualization of α-syn fibrilization, since the dye ThT is able to bind to the amyloidogenic cross-β-sheet proportions of fibril structures. Recombinant α-syn was thawed on ice and centrifuged for 30 min at 21,000 × g and 4 °C. The concentration of the supernatant was determined as described previously. Lyophilized D-peptides were thawed at RT for 1 h and dissolved in 500 µl PBS pH 7.4. After centrifugation for 30 min at 21,000 × g the supernatant concentration was determined by UV–vis using the corresponding extinction coefficient at A280. […] ThT fluorescence was monitored with bottom optics at λex = 448 nm and λem = 482 nm in a fluorescence plate reader with orbital averaging on 3 mm (Clariostar or Polarstar Optima, BMG labtech, GE). […]
ThT assay was used for different purposes. […] Lag-time and t½ were calculated as described previously. […]
ThT fluorescence progression was measured in a 96-well non-binding half-area plate (Corning, USA) with a FLUOStar platereader (BMG labtech, GE) at λex = 448 nm and λem = 482 nm. […] 10 µM α-syn monomer was incubated with 5, 10 and 20 µM peptide at 37 °C, adding one borosilicate glass bead per well (d = 3.0 mm, Hilgenberg, GE) with continuous orbital shaking at 300 rpm in between reads. […]
For each fit, x ½, lag-time and steady state response was determined in order to calculate their mean value for each condition. […]

[3] = tested on: α-syn (1–108); test: De novo ThT aggregation of 1-108 truncated α-syn; assay type: biochemical; conditions: 25 µM 1-108 α-syn, equimolar peptide
Method: ThT assay was used for different purposes. […] Lag-time and t½ were calculated as described previously. […] Measurements were taken every 5 min (n = 3).
Aggregation curves were fitted with a symmetric Boltzmann fit and the steady state signal was normalized to 1.

[4] = target: T1, α-syn monomer (full-length) (Homo sapiens, UniProt P37840); test: SPR single-cycle kinetics, peptide immobilized, α-syn as analyte; assay type: binding; conditions: for deviation from 1:1 model (additional binding mode): suggested from deviation of fits for later injections
T1 construct: made in house; host or cells: E. coli BL21(DE3), co-expressed with pNatB (N-terminal acetylation enzyme from Schizosaccharomyces pombe)
Method: The experiment was performed as an individual measurement. […] The non-referenced signal of the active and referenced surface is shown in Supplementary Fig. 7. […] Full-length α-syn was injected for 100 s at 30 µl/min in PBS 7.4 in a serial dilution ranging from 15 to 250 nM, followed by a dissociation time of 60 min. Y-axis scaling was adjusted to (A).
Measurements were performed using an 8K Biacore device (Cytiva, USA). Interactions were measured using single-cycle kinetics experiments. For all assays, the peptide compounds were immobilized as ligand on the sensor surface and recombinant α-syn was injected as analyte in the flow. […] Surface quenching was performed using 1 M ethanolamine, pH 8.3. The kinetic experiments were performed using a flow rate of 30 µl/min in PBS pH 7.4 if not otherwise stated. The surface was regenerated in between cycles using 30 s injections of 2 M Gua-HCl at 30 µl/min. Data evaluation was performed using Biacore Insight Evaluation Software v3.0 (Cytiva, USA).

Structure (SMILES) | fold lower concentration for similar cell viability saving effect vs SVD-1 ([1]; 0.5 µM SVD-1a vs 15 µM SVD-1) | PC12 cell viability with PFF ([1]; 0.5 µM) [%] | inhibition of de novo aggregation at twofold molar excess ([2]; 10 µM α-syn, 20 µM peptide) | inhibition of α-syn (1–108) aggregation [3] | Kd [4] [nM] | koff ([4]; 1:1 Langmuir-based model, immobilized peptide, α-syn analyte, PBS pH 7.4, dissociation 60 or 30 min, individual measurement) [s⁻¹] | kon ([4]; 1:1 Langmuir-based model, immobilized peptide, α-syn analyte, PBS pH 7.4, individual measurement) [M⁻¹ s⁻¹] | sequence specificity of binding ([4]; comparison of SVD-1a and SVD-1a_scr.+5r) | deviation from 1:1 model (additional binding mode) [4] | PC12 cell viability with PFF ([1]; 15 µM) [%] | inhibition of de novo aggregation ([2]; 10 µM α-syn, 5, 10 and 20 µM peptide, glass bead, continuous shaking 300 rpm)
CC[C@@H](C)[C@@H](NC(=O)[C@@H](Cc1c[nH]cn1)NC(=O)[C@@H](CCC(=O)O)NC(=O)[C@@H](CCC(N)=O)NC(=O)[C@@H](Cc1c[nH]c2ccccc12)NC(=O)[C@@H](Cc1ccc(O)cc1)NC(=O)[C@H](NC(=O)[C@@H](CCC(=O)O)NC(=O)[C@@H](Cc1c[nH]cn1)NC(=O)[C@H](NC(=O)[C@H]1CCCN1C(=O)[C@@H](CC(C)C)NC(=O)[C@H](N)CCCNC(=N)N)[C@H](C)O)[C@H](C)O)C(=O)N[C@H](Cc1c[nH]c2ccccc12)C(=O)N[C@H](Cc1c[nH]cn1)C(=O)N[C@H](C)C(=O)N[C@H](CCCNC(=N)N)C(=O)N[C@H](CCCNC(=N)N)C(=O)N[C@H](CCCNC(=N)N)C(=O)N[C@H](CCCNC(=N)N)C(=O)N[C@H](CCCNC(=N)N)C(N)=O [SVD-1a] (H-[dR][dL][dP][dT][dH][dE][dT][dY][dW][dQ][dE][dH][dI][dW][dH][dA][dR][dR][dR][dR][dR]-NH2) | 30 -fold | 82 | completely inhibited | delay of 1- 108 truncated α-syn aggregation | 0.1 | 3.13e-05 | 313000 | sequence-specific | additional low-affinity binding mode in the higher nM range | – | –
CC[C@@H](C)[C@@H](NC(=O)[C@@H](Cc1c[nH]cn1)NC(=O)[C@@H](CCC(=O)O)NC(=O)[C@@H](CCC(N)=O)NC(=O)[C@@H](Cc1c[nH]c2ccccc12)NC(=O)[C@@H](Cc1ccc(O)cc1)NC(=O)[C@H](NC(=O)[C@@H](CCC(=O)O)NC(=O)[C@@H](Cc1c[nH]cn1)NC(=O)[C@H](NC(=O)[C@H]1CCCN1C(=O)[C@@H](CCSC)NC(=O)[C@H](N)CCCCN)[C@H](C)O)[C@H](C)O)C(=O)N[C@H](Cc1c[nH]c2ccccc12)C(=O)N[C@H](Cc1c[nH]cn1)C(=O)N[C@H](C)C(N)=O [SVD-1] (H-[dK][dM][dP][dT][dH][dE][dT][dY][dW][dQ][dE][dH][dI][dW][dH][dA]-NH2) | – | – | – | delay of 1- 108 truncated α-syn aggregation | – | – | – | – | additional low-affinity binding mode in the higher nM range | 89 | concentration-dependent delay of aggregation onset as well as by a reduction of steady state levels; also recorded: inhibits primary nucleation of α-syn
